Measurements as given in US20240131167A1, “EGFR Degraders and Associated Methods of Use” (BeiGene Switzerland GmbH, priority 2021, published 2024).

Legend:
[1] = molecular target: T1, EGFR (L858R/T790M/C797S) in BaF3-LTC cells (Homo sapiens, UniProt P00533, C797S/L858R/T790M); experiment: Cell degradation of EGFR, HTRF assay, BaF3-LTC cells; assay type: cell-based; details: 16 h treatment; for DC50: HTRF; for Dmax: maximum percentage of inhibition (degradation)
T1 construct: expressed in transfected cells; host or cells: BaF3-LTC
Procedure: (§1) BaF3-LTC (L858R/T790M/C797S) cells are treated with compounds diluted in 0.2% DMSO cell culture medium and incubate for 16 h, 37° C., 5% CO2. H1975-#28 cells are treated with compounds diluted in 0.2% DMSO cell culture medium on day 2, incubate for 16 h, 37° C., 5% CO2, the final concentration of compounds in all assay is start with 10 uM, 4-fold dilution, total 8 doses were included.
(§2) After 16 h treatment, add HTRF lysis buffer to each well; seal the plate and incubate 1 hour at room temperature on a plate shaker. Once the cells are lysed, 16 μL of cell lysate are transferred to a PE 384-well HTRF detection plate: 4 μL of pre-mixed HTRF antibodies are added to each well; Cover the plate with a plate sealer, spin 1000 rpm for 1 min, Incubate overnight at room temperature; Read on BMG PheraStar with HTRF protocol (337 nm-665 nm-620 nm).
(§3) The inhibition (degradation) percentage of the compound was calculated by the following equation: […]
(§4) The IC50 (DC50) value of a compound can be obtained by fitting the following equation
(§5) Y=Bottom+(TOP−Bottom)/(1+((IC50/X)^hillslope))
(§6) Wherein, X and Y are known values, and IC50. Hillslope, Top and Bottom are the parameters obtained by fitting with software. Y is the inhibition percentage (calculated from the equation), X is the concentration of the compound; IC50 is the concentration of the compound when the 50% inhibition is reached. The smaller the IC50 value is, the stronger the inhibitory ability of the compound is. Vice versa, the higher the IC50 value is, the weaker the ability the inhibitory ability of the compound is; Hillslope represents the slope of the fitted curve, generally around 1*; Bottom represents the minimum value of the curve obtained by data fitting, which is generally 0%±20%. Top represents the maximum value of the curve obtained by data fitting, which is generally 100%±20%. The experimental data were fitted by calculating and analyzing with Dotmatics data analysis software.

[2] = system: EGFR (Del19/T790M/C797S) in H1975-clone #28 cells; experiment: Cell degradation of EGFR, HTRF assay, H1975-clone #28 cells; assay type: cell-based; details: H1975-clone #28 (Del19/T790M/C797S, homozygous), 16 h treatment; for DC50: HTRF; for Dmax H1975 #28: maximum percentage of inhibition (degradation)
Procedure: as §1, §2, §3, §4, §5, §6

T1 sequence (P00533 25-1210 T790M/C797S/L858R): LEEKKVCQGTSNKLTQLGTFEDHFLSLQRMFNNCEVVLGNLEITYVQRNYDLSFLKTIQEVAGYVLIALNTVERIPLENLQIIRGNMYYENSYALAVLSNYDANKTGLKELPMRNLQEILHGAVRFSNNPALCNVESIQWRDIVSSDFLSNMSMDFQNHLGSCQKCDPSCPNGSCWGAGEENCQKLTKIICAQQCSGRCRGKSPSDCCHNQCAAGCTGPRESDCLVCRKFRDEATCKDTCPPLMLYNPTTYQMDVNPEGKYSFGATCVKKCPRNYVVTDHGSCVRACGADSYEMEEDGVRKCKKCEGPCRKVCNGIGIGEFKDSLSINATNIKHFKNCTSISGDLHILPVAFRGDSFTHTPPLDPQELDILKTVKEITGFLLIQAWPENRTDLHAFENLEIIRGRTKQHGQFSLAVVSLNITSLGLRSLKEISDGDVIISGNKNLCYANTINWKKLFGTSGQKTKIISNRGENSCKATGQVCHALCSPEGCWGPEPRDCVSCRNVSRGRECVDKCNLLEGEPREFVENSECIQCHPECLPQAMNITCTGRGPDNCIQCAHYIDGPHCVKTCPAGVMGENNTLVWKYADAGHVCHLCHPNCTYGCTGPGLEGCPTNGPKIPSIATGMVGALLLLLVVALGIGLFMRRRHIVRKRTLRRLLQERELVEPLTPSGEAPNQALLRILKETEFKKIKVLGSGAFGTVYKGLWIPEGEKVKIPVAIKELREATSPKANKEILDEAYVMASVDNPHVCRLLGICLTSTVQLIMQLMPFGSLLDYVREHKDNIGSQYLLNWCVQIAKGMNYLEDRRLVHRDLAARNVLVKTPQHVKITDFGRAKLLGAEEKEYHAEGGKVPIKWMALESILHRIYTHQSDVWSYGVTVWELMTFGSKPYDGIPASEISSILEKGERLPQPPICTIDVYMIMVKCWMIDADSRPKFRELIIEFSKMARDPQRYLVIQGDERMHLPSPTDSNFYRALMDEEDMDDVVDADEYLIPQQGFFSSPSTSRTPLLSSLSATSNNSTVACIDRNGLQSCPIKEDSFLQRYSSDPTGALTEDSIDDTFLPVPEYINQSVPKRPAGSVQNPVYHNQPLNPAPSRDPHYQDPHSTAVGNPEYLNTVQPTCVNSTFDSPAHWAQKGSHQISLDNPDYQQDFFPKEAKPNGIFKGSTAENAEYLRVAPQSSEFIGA

Row | Structure (SMILES) | DC50 [1] | Dmax [1] | DC50 [2] | Dmax H1975 #28 [2]
1 | CCc1cc(Nc2ncc(Br)c(Nc3ccc4nc(C)ccc4c3P3(=O)CCCC3)n2)c(OC)cc1N1CCC(N2CCN(CCc3cccc4c3n(C)c(=O)n4C3CCC(=O)NC3=O)CC2)CC1 (stereo not shown) [Example 68, 3-(4-(2-(4-(1-(4-((5-bromo-4-((2-methyl-5-(1-oxidophospholan-1-yl)quinolin-6-yl)amino)pyrimidin-2-yl)amino)-2-ethyl-5-methoxyphenyl)piperidin-4-yl)piperazin-1-yl)ethyl)-3-methyl-2-oxo-2,3-dihydro-1H-benzo[d]imidazol-1-yl)piperidine-2,6-dione] | 3.46 nM | 90.8% | 1.34 nM | 85.88%
2 | CCc1cc(Nc2ncc(Br)c(Nc3ccc4nc(C)ccc4c3P3(=O)CCCC3)n2)c(OC)cc1N1CCC(N2CCN(CCc3ccc4c(c3)oc(=O)n4C3CCC(=O)NC3=O)CC2)CC1 (stereo not shown) [Example 71, 3-(6-(2-(4-(1-(4-((5-bromo-4-((2-methyl-5-(1-oxidophospholan-1-yl)quinolin-6-yl)amino)pyrimidin-2-yl)amino)-2-ethyl-5-methoxyphenyl)piperidin-4-yl)piperazin-1-yl)ethyl)-2-oxobenzo[d]oxazol-3(2H)-yl)piperidine-2,6-dione] | 2.51 nM | 88.6% | 1.38 nM | 72.97%
3 | CCc1cc(Nc2ncc(Br)c(Nc3ccc4nc(C)ccc4c3P3(=O)CCCC3)n2)c(OC)cc1N1CCC(N2CCN(CCc3cccc4c3C(C)(C)C(=O)N4C3CCC(=O)NC3=O)CC2)CC1 (stereo not shown) [Example 73, 3-(4-(2-(4-(1-(4-((5-bromo-4-((2-methyl-5-(1-oxidophospholan-1-yl)quinolin-6-yl)amino)pyrimidin-2-yl)amino)-2-ethyl-5-methoxyphenyl)piperidin-4-yl)piperazin-1-yl)ethyl)-3,3-dimethyl-2-oxoindolin-1-yl)piperidine-2,6-dione] | 7.52 nM | 89.9% | 0.66 nM | 78.13%
4 | CCc1cc(Nc2ncc(Br)c(Nc3ccccc3P3(=O)CCCC3)n2)c(OC)cc1N1CCC(N2CCN(C(=O)[C@@H]3CCN(c4cc(F)c(C5CCC(=O)NC5=O)c(F)c4)C3)CC2)CC1 (stereo partly drawn) [Example 111, 3-(4-((R)-3-(4-(1-(4-((5-bromo-4-((2-(1-oxidophospholan-1-yl)phenyl)amino)pyrimidin-2-yl)amino)-2-ethyl-5-methoxyphenyl)piperidin-4-yl)piperazine-1-carbonyl)pyrrolidin-1-yl)-2,6-difluorophenyl)piperidine-2,6-dione] | 26.8 nM | 90.3% | 4.31 nM | 87.16%
5 | CCc1cc(Nc2ncc(Br)c(Nc3ccc4nc(C)ccc4c3P3(=O)CC=CC3)n2)c(OC)cc1N1CCC(N2CCN(CCc3ccc4c(c3)oc(=O)n4C3CCC(=O)NC3=O)CC2)CC1 (stereo not shown) [Example 145, 3-(6-(2-(4-(1-(4-((5-bromo-4-((2-methyl-5-(1-oxido-2,5-dihydrophosphol-1-yl)quinolin-6-yl)amino)pyrimidin-2-yl)amino)-2-ethyl-5-methoxyphenyl)piperidin-4-yl)piperazin-1-yl)ethyl)-2-oxobenzo[d]oxazol-3(2H)-yl)piperidine-2,6-dione] | 1.82 nM | 91.8% | 0.77 nM | 75.97%
6 | CCc1cc(Nc2ncc(Br)c(Nc3ccccc3P3(=O)CCCC3)n2)c(OC)cc1N1CCC(N2CCN(CCc3cc(F)c(C4CCC(=O)NC4=O)c(F)c3)CC2)CC1 (stereo not shown) [Example 147, 3-(4-(2-(4-(1-(4-((5-bromo-4-((2-(1-oxidophospholan-1-yl)phenyl)amino)pyrimidin-2-yl)amino)-2-ethyl-5-methoxyphenyl)piperidin-4-yl)piperazin-1-yl)ethyl)-2,6-difluorophenyl)piperidine-2,6-dione] | 75.1 nM | 86.6% | 3.15 nM | 82.21%
7 | CCc1cc(Nc2ncc(Br)c(Nc3ccccc3P3(=O)CCCC3)n2)c(OC)cc1N1CCC(N2CCN(C(=O)C3CN(c4cc(F)c(C5CCC(=O)NC5=O)c(F)c4)C3)CC2)CC1 (stereo not shown) [Example 148, 3-(4-(3-(4-(1-(4-((5-bromo-4-((2-(1-oxidophospholan-1-yl)phenyl)amino)pyrimidin-2-yl)amino)-2-ethyl-5-methoxyphenyl)piperidin-4-yl)piperazine-1-carbonyl)azetidin-1-yl)-2,6-difluorophenyl)piperidine-2,6-dione] | 19.8 nM | 90.2% | 2.99 nM | 78.19%
